Test results published in PubChem BioAssay (NCI).
Several values for one entry are separate records, joined by “and”; a condition that tells them apart may be missing. Identical values can stand only once.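 Test compounds were applied to cells in 96-well plates for 48 hours at 5 doses. GI50 is the concentration that inhibits growth by half. Definition used: TGI = concentration required for complete inhibition of growth.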

System: MDA-MB-468 breast
Experiment: NCI-60 cell line screen, 48 h

Nc1cc(-c2c[nH]c3ccc(Br)cc23)nc2cc(-c3c[nH]c4ccc(Br)cc34)nn12
GI50: 1590 nM | TGI: 3160 nM

CCOc1ccccc1NC1=C(Cl)C(=O)c2nc(C)ccc2C1=O
GI50: 1450 nM | TGI: 2880 nM

CC(=O)O[C@H]1CCC2(C)C(=CCC3C2CCC2(C)/C(=N/OC(=O)c4ccc(N(CCCl)CCCl)cc4)CCC32)C1 (some centres undefined)
GI50: 31100 nM | TGI: > 100000 nM

CCCCN1CCN(c2ccc3nc(-c4ccc5nc(-c6ccc(OC)c(OC)c6)[nH]c5c4)[nH]c3c2)CC1
GI50: 370 nM | TGI: 1330 nM

O=NN(CCCl)C(=O)NCCCl
TGI: 146000 nM and > 500000 nM
